From ChEMBL document CHEMBL5046228 (Eur J Med Chem, 2022)

Experiments:
NCI-H1975 [1] = test: Induction of apoptosis in human NCI-H1975 cells assessed as increase in necrotic cells at 0.1 uM after 36 hrs by annexin-V-FITC/PI staining based flow cytometric analysis (reference value: 0.35%); format: functional
NCI-H1975 [2] = test: Induction of apoptosis in human NCI-H1975 cells assessed as increase in viable cells at 0.5 uM after 36 hrs by annexin-V-FITC/PI staining based flow cytometric analysis (reference value: 94.6%); format: functional
NCI-H1299 [3] = test: Induction of apoptosis in human NCI-H1299 cells assessed as increase in necrotic cells at 2.5 uM after 36 hrs by annexin-V-FITC/PI staining based flow cytometric analysis (reference value: 0.75%); format: functional
NCI-H1299 [4] = test: Induction of cell cycle arrest in human NCI-H1299 cells assessed as accumulation at G0/G1 phase at 0.1 uM after 36 hrs by PI staining based flow cytometry analysis (reference value: 70.2%); format: functional
NCI-H1299 [5] = test: Induction of apoptosis in human NCI-H1299 cells assessed as increase in viable cells at 2.5 uM after 36 hrs by annexin-V-FITC/PI staining based flow cytometric analysis (reference value: 94.1%); format: functional
NCI-H1975 [6] = test: Induction of apoptosis in human NCI-H1975 cells assessed as increase in viable cells at 0.02 uM after 36 hrs by annexin-V-FITC/PI staining based flow cytometric analysis (reference value: 94.6%); format: functional
NCI-H1975 [7] = test: Induction of apoptosis in human NCI-H1975 cells assessed as increase in late apoptotic cells at 0.02 uM after 36 hrs by annexin-V-FITC/PI staining based flow cytometric analysis (reference value: 3.85%); format: functional
NCI-H1975 [8] = test: Induction of apoptosis in human NCI-H1975 cells assessed as increase in early apoptotic cells at 0.5 uM after 36 hrs by annexin-V-FITC/PI staining based flow cytometric analysis (reference value: 1.24%); format: functional
NCI-H1975 [9] = test: Induction of cell cycle arrest in human NCI-H1975 cells assessed as accumulation at S phase at 2.5 uM after 36 hrs by PI staining based flow cytometry analysis (reference value: 32.7 %); format: functional
NCI-H1975 [10] = test: Induction of apoptosis in human NCI-H1975 cells assessed as increase in late apoptotic cells at 0.5 uM after 36 hrs by annexin-V-FITC/PI staining based flow cytometric analysis (reference value: 3.85%); format: functional
NCI-H1975 [11] = test: Induction of apoptosis in human NCI-H1975 cells assessed as increase in necrotic cells at 0.02 uM after 36 hrs by annexin-V-FITC/PI staining based flow cytometric analysis (reference value: 0.35%); format: functional
NCI-H1299 [12] = test: Induction of apoptosis in human NCI-H1299 cells assessed as increase in viable cells at 0.5 uM after 36 hrs by annexin-V-FITC/PI staining based flow cytometric analysis (reference value: 94.1%); format: functional
NCI-H1299 [13] = test: Induction of cell cycle arrest in human NCI-H1299 cells assessed as accumulation at S phase at 2.5 uM after 36 hrs by PI staining based flow cytometry analysis (reference value: 24.8%); format: functional
NCI-H1975 [14] = test: Induction of cell cycle arrest in human NCI-H1975 cells assessed as accumulation at S phase at 0.02 uM after 36 hrs by PI staining based flow cytometry analysis (reference value: 32.7 %); format: functional
[15] = target: Epidermal growth factor receptor (Homo sapiens, UniProt P00533, EX19DEL); test: Inhibition of EGFR del19 (unknown origin) using flurogenic substrate in presence of ATP by HTRF assay
NCI-H1299 [16] = test: Induction of apoptosis in human NCI-H1299 cells assessed as increase in viable cells at 0.1 uM after 36 hrs by annexin-V-FITC/PI staining based flow cytometric analysis (reference value: 94.1%); format: functional
NCI-H1299 [17] = test: Induction of apoptosis in human NCI-H1299 cells assessed as increase in early apoptotic cells at 0.1 uM after 36 hrs by annexin-V-FITC/PI staining based flow cytometric analysis (reference value: 0.79%); format: functional
NCI-H1299 [18] = test: Induction of cell cycle arrest in human NCI-H1299 cells assessed as accumulation at G0/G1 phase at 0.02 uM after 36 hrs by PI staining based flow cytometry analysis (reference value: 70.2%); format: functional
NCI-H1299 [19] = test: Induction of cell cycle arrest in human NCI-H1299 cells assessed as accumulation at G2/M phase at 0.1 uM after 36 hrs by PI staining based flow cytometry analysis (reference value: 5.6%); format: functional
NCI-H1299 [20] = test: Induction of cell cycle arrest in human NCI-H1299 cells assessed as accumulation at G2/M phase at 0.02 uM after 36 hrs by PI staining based flow cytometry analysis (reference value: 5.6%); format: functional
NCI-H1299 [21] = test: Induction of cell cycle arrest in human NCI-H1299 cells assessed as accumulation at S phase at 0.5 uM after 36 hrs by PI staining based flow cytometry analysis (reference value: 24.8%); format: functional
NCI-H1975 [22] = test: Induction of cell cycle arrest in human NCI-H1975 cells assessed as accumulation at G2/M phase at 0.02 uM after 36 hrs by PI staining based flow cytometry analysis (reference value: 43.1%); format: functional
NCI-H1299 [23] = test: Induction of apoptosis in human NCI-H1299 cells assessed as increase in late apoptotic cells at 0.5 uM after 36 hrs by annexin-V-FITC/PI staining based flow cytometric analysis (reference value: 4.39%); format: functional
NCI-H1299 [24] = test: Antiproliferative activity against human NCI-H1299 cells expressing wild type EGFR assessed as inhibition in cell viability after 72 hrs by CCK8 assay; format: functional, cell-based; settings: NCI-H1299, 72 h
NCI-H1975 [25] = test: Induction of cell cycle arrest in human NCI-H1975 cells assessed as accumulation at G2/M phase at 2.5 uM after 36 hrs by PI staining based flow cytometry analysis (reference value: 43.1%); format: functional
NCI-H1299 [26] = test: Induction of cell cycle arrest in human NCI-H1299 cells assessed as accumulation at S phase at 0.02 uM after 36 hrs by PI staining based flow cytometry analysis (reference value: 24.8%); format: functional
NCI-H1975 [27] = test: Induction of cell cycle arrest in human NCI-H1975 cells assessed as accumulation at G0/G1 phase at 0.02 uM after 36 hrs by PI staining based flow cytometry analysis (reference value: 24.2%); format: functional
NCI-H1299 [28] = test: Induction of apoptosis in human NCI-H1299 cells assessed as increase in late apoptotic cells at 2.5 uM after 36 hrs by annexin-V-FITC/PI staining based flow cytometric analysis (reference value: 4.39%); format: functional
[29] = target: Epidermal growth factor receptor (Homo sapiens, UniProt P00533); test: Inhibition of wild type EGFR (unknown origin) using flurogenic substrate in presence of ATP by HTRF assay
NCI-H1299 [30] = test: Induction of apoptosis in human NCI-H1299 cells assessed as increase in late apoptotic cells at 0.1 uM after 36 hrs by annexin-V-FITC/PI staining based flow cytometric analysis (reference value: 4.39%); format: functional
NCI-H1299 [31] = test: Induction of apoptosis in human NCI-H1299 cells assessed as increase in late apoptotic cells at 0.02 uM after 36 hrs by annexin-V-FITC/PI staining based flow cytometric analysis (reference value: 4.39%); format: functional

Epidermal growth factor receptor (Homo sapiens, UniProt P00533, EX19DEL), sequence (P00533 whole entry, looked up, stated change not applied): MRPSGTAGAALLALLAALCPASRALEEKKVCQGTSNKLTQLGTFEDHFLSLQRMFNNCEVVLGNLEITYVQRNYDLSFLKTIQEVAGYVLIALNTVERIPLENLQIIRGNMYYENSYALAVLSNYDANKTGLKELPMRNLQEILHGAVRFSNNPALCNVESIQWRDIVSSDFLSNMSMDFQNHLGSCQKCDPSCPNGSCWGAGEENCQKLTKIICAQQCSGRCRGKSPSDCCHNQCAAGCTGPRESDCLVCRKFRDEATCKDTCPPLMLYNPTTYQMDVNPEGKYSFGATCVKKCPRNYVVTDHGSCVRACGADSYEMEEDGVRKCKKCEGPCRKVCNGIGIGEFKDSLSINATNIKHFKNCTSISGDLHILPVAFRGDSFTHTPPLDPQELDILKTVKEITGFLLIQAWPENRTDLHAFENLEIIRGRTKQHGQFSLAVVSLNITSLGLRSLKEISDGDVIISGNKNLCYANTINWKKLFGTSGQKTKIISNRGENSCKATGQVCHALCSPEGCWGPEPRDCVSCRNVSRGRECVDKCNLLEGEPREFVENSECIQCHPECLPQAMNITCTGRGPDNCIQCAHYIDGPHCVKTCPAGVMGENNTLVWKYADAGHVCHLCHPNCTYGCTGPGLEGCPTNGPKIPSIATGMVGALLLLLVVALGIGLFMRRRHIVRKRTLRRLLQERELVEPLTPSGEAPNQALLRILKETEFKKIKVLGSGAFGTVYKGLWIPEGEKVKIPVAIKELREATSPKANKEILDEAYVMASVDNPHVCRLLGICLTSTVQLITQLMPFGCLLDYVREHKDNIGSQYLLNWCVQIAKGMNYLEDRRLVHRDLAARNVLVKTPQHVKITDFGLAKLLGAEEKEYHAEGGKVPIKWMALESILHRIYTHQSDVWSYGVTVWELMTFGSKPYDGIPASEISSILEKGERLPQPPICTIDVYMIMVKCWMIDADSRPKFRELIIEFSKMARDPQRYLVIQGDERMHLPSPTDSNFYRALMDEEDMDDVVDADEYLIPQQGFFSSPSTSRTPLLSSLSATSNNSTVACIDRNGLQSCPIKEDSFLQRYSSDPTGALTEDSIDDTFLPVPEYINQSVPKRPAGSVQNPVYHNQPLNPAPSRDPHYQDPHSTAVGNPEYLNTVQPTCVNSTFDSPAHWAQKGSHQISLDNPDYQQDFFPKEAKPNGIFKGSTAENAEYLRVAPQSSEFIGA
Epidermal growth factor receptor (Homo sapiens, UniProt P00533), sequence (P00533 whole entry): as the sequence (P00533 whole entry, looked up, stated change not applied) above

Compound: C#CCN(C)CCN(C)c1cc(OC)c(Nc2nccc(Nc3cn(C)c4ccccc34)n2)cc1NC(=O)C=C
- Activity (NCI-H1975 [1]): 0.019%
- Activity (NCI-H1975 [2]): 79.2%
- Activity (NCI-H1299 [3]): 0.6%
- Activity (NCI-H1299 [4]): 70.6%
- Activity (NCI-H1299 [5]): 92.1%
- Activity (NCI-H1975 [6]): 94.9%
- Activity (NCI-H1975 [7]): 3.09%
- Activity (NCI-H1975 [8]): 12.2%
- Activity (NCI-H1975 [9]): 18.4%
- Activity (NCI-H1975 [10]): 8.52%
- Activity (NCI-H1975 [11]): 0.038%
- Activity (NCI-H1299 [12]): 92.6%
- Activity (NCI-H1299 [13]): 24.7%
- Activity (NCI-H1975 [14]): 27.3%
- IC50 [15]: 0.00957 µM
- Activity (NCI-H1299 [16]): 92.6%
- Activity (NCI-H1299 [17]): 1.06%
- Activity (NCI-H1299 [18]): 70.4%
- Activity (NCI-H1299 [19]): 5.7%
- Activity (NCI-H1299 [20]): 6.8%
- Activity (NCI-H1299 [21]): 25.6%
- Activity (NCI-H1975 [22]): 50.2%
- Activity (NCI-H1299 [23]): 5.63%
- IC50 (NCI-H1299 [24]): > 100 µM
- Activity (NCI-H1975 [25]): 64.6%
- Activity (NCI-H1299 [26]): 23.8%
- Activity (NCI-H1975 [27]): 22.5%
- Activity (NCI-H1299 [28]): 6.35%
- IC50 [29]: > 10 µM
- Activity (NCI-H1299 [30]): 5.69%
- Activity (NCI-H1299 [31]): 5.17%
